Measurements taken from ChEMBL document CHEMBL3745637, “New hybrid molecules with anticonvulsant and antinociceptive activity derived from 3-methyl- or 3,3-dimethyl-1-[1-oxo-1-(4-phenylpiperazin-1-yl)propan-2-yl]pyrrolidine-2,5-diones” (Bioorg Med Chem, 2016).
Calls of active or inactive are those of the source. The rule behind the calls is not given here.

Legend:
Mus musculus [1] = experiment: Anticonvulsant activity in ip dosed Swiss mouse assessed as protection against maximal electroshock-induced seizures at 0.5 hrs; type: functional
Mus musculus [2] = experiment: Antinociceptive activity in ip dosed Swiss mouse assessed as reduction of formalin-induced licking at MES ED50 pretreated for 0.5 hrs measured during 1 to 5 mins; type: functional, organism-based
Mus musculus [3] = experiment: Anticonvulsant activity in ip dosed Swiss mouse assessed as reduction in clonic seizures at 0.5 hrs by subcutaneous pentylenetetrazole seizure test; type: functional
[4] = Protective index, ratio of TD50 for neurotoxicity in ip dosed Swiss mouse to ED50 for anticonvulsant activity in ip dosed MES Swiss mouse model at 0.25 hrs; type: toxicity, organism-based; conditions: in vivo, read-out: Ratio TD50/ED50
Mus musculus [5] = experiment: Anticonvulsant activity in Swiss mouse assessed as protection against maximal electroshock-induced seizures at 100 mg/kg, ip pretreated for 2 hrs; type: functional, organism-based
[6] = Protective index, ratio of TD50 for neurotoxicity in ip dosed Swiss mouse to ED50 for anticonvulsant activity in ip dosed scPTZ Swiss mouse model at 0.25 hrs; type: toxicity, organism-based; conditions: in vivo, read-out: Ratio TD50/ED50
Rattus norvegicus [7] = species: Rattus norvegicus; experiment: Displacement of [3H]Batrachotoxinin from sodium channel site 2 in rat cerebral cortex at 100 uM after 60 mins by scintillation counting method; type: tissue-based
Mus musculus [8] = experiment: Anticonvulsant activity in ip dosed Swiss mouse assessed as reduction in clonic seizures at 0.25 hrs by subcutaneous pentylenetetrazole seizure test; type: functional
[9] = Protective index, ratio of TD50 for neurotoxicity in ip dosed Swiss mouse to ED50 for anticonvulsant activity in ip dosed MES Swiss mouse model at 0.5 hrs; type: toxicity, organism-based; conditions: in vivo, read-out: Ratio TD50/ED50
Rattus norvegicus [10] = species: Rattus norvegicus; experiment: Displacement of [3H]nitrendipine from calcium channel L-Type dihydropyridine site in rat cerebral cortex at 500 uM after 120 mins by scintillation counting method; type: tissue-based
[11] = biological target: T1, Glutamate NMDA receptor (Rattus norvegicus) (UniProt P35439+Q00959+Q00960+Q00961+Q62645+Q8VHN2+Q9R1M7); experiment: Displacement of [3H]CGP-39653 from NMDA receptor in rat cerebral cortex at 100 uM after 60 mins by scintillation counting method; type: tissue-based
Mus musculus [12] = experiment: Antinociceptive activity in ip dosed Swiss mouse assessed as reduction of formalin-induced licking at MES ED50 pretreated for 0.5 hrs measured during 15 to 20 mins; type: functional; design: scale not given: the % may be the effect or the level left
Mus musculus [13] = experiment: Anticonvulsant activity in Swiss mouse assessed as prolong latency to first seizure episode at 60 mg/kg pretreated for 0.5 hrs measured after 30 mins by subcutaneous pentylenetetrazole seizure test; type: functional, organism-based
Mus musculus [14] = experiment: Anticonvulsant activity in ip dosed Swiss mouse assessed as protection against maximal electroshock-induced seizures at 0.25 hrs; type: functional
Mus musculus [15] = experiment: Anticonvulsant activity against ip dosed Swiss mouse seizure model assessed as protection at 0.5 hrs by 6 Hz psychomotor seizure test; type: functional
[16] = Protective index, ratio of TD50 for neurotoxicity in ip dosed Swiss mouse to ED50 for anticonvulsant activity in ip dosed Swiss mouse 6 Hz psychomotor seizure model at 0.5 hrs; type: toxicity, organism-based; conditions: in vivo, read-out: Ratio TD50/ED50
[17] = biological target: T1, Glutamate NMDA receptor (Rattus norvegicus); experiment: Displacement of [3H]CGP-39653 from NMDA receptor in rat cerebral cortex at 500 uM after 60 mins by scintillation counting method; type: tissue-based
Mus musculus [18] = experiment: Anticonvulsant activity against ip dosed Swiss mouse seizure model assessed as protection at 0.25 hrs by 6 Hz psychomotor seizure test; type: functional
Mus musculus [19] = experiment: Anticonvulsant activity in Swiss mouse assessed as protection against maximal electroshock-induced seizures at 300 mg/kg, ip pretreated for 0.5 hrs; type: functional, organism-based
Mus musculus [20] = experiment: Anticonvulsant activity in Swiss mouse assessed as protection against maximal electroshock-induced seizures at 300 mg/kg, ip pretreated for 2 hrs; type: functional, organism-based
[21] = Protective index, ratio of TD50 for neurotoxicity in ip dosed Swiss mouse to ED50 for anticonvulsant activity in ip dosed Swiss mouse 6 Hz psychomotor seizure model at 0.25 hrs; type: toxicity, organism-based; conditions: in vivo, read-out: Ratio TD50/ED50
[22] = Neurotoxicity in ip dosed Swiss mouse seizure model assessed as motor impairment pretreated for 0.5 hrs measured within 60 s by chimney test; type: toxicity, organism-based; conditions: in vivo
[23] = Protective index, ratio of TD50 for neurotoxicity in ip dosed Swiss mouse to ED50 for anticonvulsant activity in ip dosed scPTZ Swiss mouse model at 0.5 hrs; type: toxicity, organism-based; conditions: in vivo, read-out: Ratio TD50/ED50
Mus musculus [24] = experiment: Anticonvulsant activity against Swiss mouse seizure model assessed as protection at 100 mg/kg, ip pretreated for 0.25 hrs by 6 Hz psychomotor seizure test; type: functional, organism-based
Rattus norvegicus [25] = species: Rattus norvegicus; experiment: Displacement of [3H]nitrendipine from calcium channel L-Type dihydropyridine site in rat cerebral cortex at 100 uM after 120 mins by scintillation counting method; type: tissue-based
Mus musculus [26] = experiment: Anticonvulsant activity in ip dosed Swiss mouse assessed as prolong latency to first seizure episode pretreated for 0.5 hrs measured after 30 mins by subcutaneous pentylenetetrazole seizure test; type: functional, organism-based
Mus musculus [27] = experiment: Potency index, ratio of ethosuximide ED50 to compound ED50 for anticonvulsant activity in ip dosed scPTZ Swiss mouse model at 0.25 hrs; type: functional
Mus musculus [28] = experiment: Anticonvulsant activity against Swiss mouse seizure model assessed as protection at 100 mg/kg, ip pretreated for 0.5 hrs by 6 Hz psychomotor seizure test; type: functional, organism-based
Rattus norvegicus [29] = species: Rattus norvegicus; experiment: Displacement of [3H]Batrachotoxinin from sodium channel site 2 in rat cerebral cortex at 500 uM after 60 mins by scintillation counting method; type: tissue-based
[30] = Neurotoxicity in ip dosed Swiss mouse seizure model assessed as motor impairment pretreated for 0.25 hrs measured within 60 s by chimney test; type: toxicity, organism-based; conditions: in vivo

CC1CC(=O)N(C(C)C(=O)N2CCN(c3cccc(C(F)(F)F)c3)CC2)C1=O (stereo not given)
ED50 (Mus musculus [1]): 74.8 mg/kg | Activity (Mus musculus [2]): inactive | ED50 (Mus musculus [3]): 51.6 mg/kg | selectivity ratio at 0.25 h [4]: 3.49 | Activity (Mus musculus [5]): inactive | selectivity ratio at 0.25 h [6]: 4.33 | inhibition (Rattus norvegicus [7]): 29.9% | ED50 (Mus musculus [8]): 65.7 mg/kg | selectivity ratio at 0.5 h [9]: 2.85 | inhibition (Rattus norvegicus [10]): 78.5% | Activity [11]: inactive | Activity (Mus musculus [12]): 84% | Activity (Mus musculus [13]): Active | ED50 (Mus musculus [14]): 81.7 mg/kg | ED50 (Mus musculus [15]): 16.8 mg/kg | selectivity ratio at 0.5 h [16]: 12.7 | Activity [17]: inactive | ED50 (Mus musculus [18]): 24.6 mg/kg | Activity (Mus musculus [19]): Active | Activity (Mus musculus [20]): Active | selectivity ratio at 0.25 h [21]: 11.6 | TD50 at 0.5 h [22]: 213 mg/kg | selectivity ratio at 0.5 h [23]: 4.13 | Activity (Mus musculus [24]): Active | inhibition (Rattus norvegicus [25]): 38.1% | Activity (Mus musculus [26]): Dose-dependent effect | Ratio ED50 (Mus musculus [27]): 2.2 | Activity (Mus musculus [28]): Active | inhibition (Rattus norvegicus [29]): 76.3% | TD50 at 0.25 h [30]: 285 mg/kg
